This is an account of results in paper PMC8887546, “Design and Synthesis of Brain Penetrant Glycopeptide Analogues of PACAP With Neuroprotective Potential for Traumatic Brain Injury and Parkinsonism” (Frontiers in drug discovery, 2022).

What all share (type): cell-based
In one test the target is T1, human VPAC2 receptor (Homo sapiens, UniProt P41587).
T1 construct: expressed in transfected cells; host or cells: CHO cells (G418 selection)
T1 sequence (P41587 24-438): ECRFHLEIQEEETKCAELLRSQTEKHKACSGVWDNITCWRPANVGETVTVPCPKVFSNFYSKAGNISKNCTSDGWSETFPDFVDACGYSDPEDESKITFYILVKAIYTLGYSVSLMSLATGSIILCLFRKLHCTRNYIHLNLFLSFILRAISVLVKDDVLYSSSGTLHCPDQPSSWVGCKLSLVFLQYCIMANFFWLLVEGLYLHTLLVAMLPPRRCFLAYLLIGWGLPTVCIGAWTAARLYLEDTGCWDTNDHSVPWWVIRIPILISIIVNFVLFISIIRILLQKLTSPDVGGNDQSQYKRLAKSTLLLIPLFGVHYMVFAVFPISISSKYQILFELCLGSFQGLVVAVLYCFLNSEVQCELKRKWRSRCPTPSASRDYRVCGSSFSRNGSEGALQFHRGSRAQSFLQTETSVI
The experiment in a line: cAMP stimulation in CHO cells expressing VPAC2. As to conditions: for Emax: CHO; for Receptor selectivity ratio VPAC2/PAC1 / Receptor selectivity ratio VPAC2/VPAC1: ratio of cAMP EC50 values. As for the experimental part: (§1) Briefly, human PAC1, VPAC1, and VPAC2 receptors expressed in CHO cells were used for all experiments. Cells were grown in 50:50 DMEM-F12 medium with 10% heat-inactivated fetal bovine serum, 1X penicillin-streptomycin supplement, and 500 μg/ml G418 (neomycin) to maintain selection (all from ThermoFisher) at 37°C with 5% CO2 atmosphere. For the cAMP assay, cells were seeded at 20,000 cells/well in a 96 well plate, recovered overnight, then serum starved for 4 h. The cells were then incubated with 500 μM IBMX for 20 min, followed by agonist concentration curves in 500 μM IBMX media for 10 min. The reaction was terminated, boiled, then collected, followed by competition with 7 μg of bovine protein kinase A (Sigma-Aldrich) and ∼1 pmol of ^3H-cAMP (PerkinElmer). The assay was incubated at room temp for 1 h, then collected onto GF/B filter plates and the data read using a MicroBeta2 scintillation counter (PerkinElmer).

A further test deals with T2, human VPAC1 receptor (Homo sapiens, UniProt P32241).
T2 construct: expressed in transfected cells; host or cells: CHO cells (G418 selection)
T2 sequence (P32241 31-457): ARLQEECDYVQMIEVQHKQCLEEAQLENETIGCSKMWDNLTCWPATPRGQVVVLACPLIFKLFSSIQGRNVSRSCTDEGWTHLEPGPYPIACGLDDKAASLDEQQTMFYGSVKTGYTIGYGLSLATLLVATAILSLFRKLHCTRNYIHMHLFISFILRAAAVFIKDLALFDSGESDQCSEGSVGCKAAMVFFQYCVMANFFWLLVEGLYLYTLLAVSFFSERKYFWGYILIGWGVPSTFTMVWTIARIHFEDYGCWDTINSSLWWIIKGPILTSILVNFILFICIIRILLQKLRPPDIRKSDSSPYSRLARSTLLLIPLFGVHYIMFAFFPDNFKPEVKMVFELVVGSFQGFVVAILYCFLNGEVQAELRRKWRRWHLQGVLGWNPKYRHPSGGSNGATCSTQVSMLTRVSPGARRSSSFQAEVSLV
As to the kind of experiment: cAMP stimulation in CHO cells expressing VPAC1. As to conditions: for Emax: CHO, read-out: VPAC1 Emax; for EC50: read-out: VPAC1 EC50; for Receptor selectivity ratio VPAC1/PAC1: ratio of cAMP EC50 values.

In the next test the target is T3, human PAC1 receptor (Homo sapiens, UniProt P41586).
T3 construct: expressed in transfected cells; host or cells: CHO cells (G418 selection)
T3 sequence (P41586 21-468): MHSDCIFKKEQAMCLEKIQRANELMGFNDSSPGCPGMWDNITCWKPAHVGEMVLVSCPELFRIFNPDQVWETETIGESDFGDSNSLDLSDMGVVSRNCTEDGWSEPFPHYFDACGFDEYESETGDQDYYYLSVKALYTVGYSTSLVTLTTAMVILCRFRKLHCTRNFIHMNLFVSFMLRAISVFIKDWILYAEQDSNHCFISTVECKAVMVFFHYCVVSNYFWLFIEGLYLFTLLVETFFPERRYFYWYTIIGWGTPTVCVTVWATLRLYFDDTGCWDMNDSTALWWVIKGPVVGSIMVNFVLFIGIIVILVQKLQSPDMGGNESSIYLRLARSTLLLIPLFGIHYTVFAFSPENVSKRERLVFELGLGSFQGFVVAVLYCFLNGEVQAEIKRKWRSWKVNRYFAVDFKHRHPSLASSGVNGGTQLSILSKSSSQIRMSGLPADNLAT
As to the kind of experiment: cAMP stimulation in CHO cells expressing PAC1. As to conditions: for Emax: CHO. The protocol:
as §1

Each structure is given as a SMILES string.

Usually EC50 stands for the concentration at which the effect is half-maximal. As usually defined, the Emax is the greatest response seen or fitted, relative to the assay's reference. Turning to `CCC[C@H](NC(=O)[C@H](CCC(N)=O)NC(=O)[C@H](CCCCN)NC(=O)[C@H](CCCNC(=N)N)NC(=O)[C@H](Cc1ccc(O)cc1)NC(=O)[C@H](CCCNC(=N)N)NC(=O)[C@H](CO)NC(=O)[C@H](Cc1ccc(O)cc1)NC(=O)[C@H](CO)NC(=O)[C@H](CC(=O)O)NC(=O)[C@@H](NC(=O)[C@H](Cc1ccccc1)NC(=O)[C@@H](CCC)NC(=O)CNC(=O)[C@H](CC(=O)O)NC(=O)[C@@H](CO)NC(=O)[C@H](Cc1c[nH]cn1)NC(C)=O)[C@@H](C)O)C(=O)N[C@@H](C)C(=O)N[C@H](C(=O)N[C@@H](CCCCN)C(=O)N[C@@H](CCCCN)C(=O)N[C@@H](Cc1ccc(O)cc1)C(=O)N[C@@H](CC(C)C)C(=O)N[C@@H](C)C(=O)N[C@@H](C)C(=O)N[C@H](C(=O)N[C@@H](CC(C)C)C(=O)N[C@@H](CO[C@@H]1O[C@H](CO)[C@@H](O)[C@H](O)[C@H]1O)C(N)=O)C(C)C)C(C)C` [Ac-CRA 3020], the EC50 at human VPAC2 receptor was more than 2500 nM; on human VPAC1 receptor it was 244 nM; at human PAC1 receptor, more than 2500 nM. Moreover, the values for the Emax at human VPAC2 receptor, at human VPAC1 receptor and at human PAC1 receptor were 71%, 36% and 61%, respectively.

Take `CCC[C@H](NC(=O)[C@H](CCC(N)=O)NC(=O)[C@H](CCCCN)NC(=O)[C@H](CCCNC(=N)N)NC(=O)[C@H](Cc1ccc(O)cc1)NC(=O)[C@H](CCCNC(=N)N)NC(=O)[C@H](CO)NC(=O)[C@H](Cc1ccc(O)cc1)NC(=O)[C@H](CO)NC(=O)[C@H](CC(=O)O)NC(=O)[C@@H](NC(=O)[C@H](Cc1ccccc1)NC(=O)[C@@H](NC(=O)CNC(=O)[C@H](CC(=O)O)NC(=O)[C@@H](CO)NC(=O)[C@@H](N)Cc1c[nH]cn1)[C@@H](C)CC)[C@@H](C)O)C(=O)N[C@@H](C)C(=O)N[C@H](C(=O)N[C@@H](CCCCN)C(=O)N[C@@H](CCCCN)C(=O)N[C@@H](Cc1ccc(O)cc1)C(=O)N[C@@H](CC(C)C)C(=O)N[C@@H](C)C(=O)N[C@@H](C)C(=O)N[C@@H](CO[C@@H]1O[C@H](CO)[C@@H](O)[C@H](O)[C@H]1O)C(=O)N[C@@H](CC(C)C)C(N)=O)C(C)C` [CRA3002]: the EC50 on human VPAC2 receptor was more than 2500 nM; on human VPAC1 receptor, 5.9 nM; at human PAC1 receptor, more than 250 nM. Besides, the values for the Emax on human VPAC1 receptor and at human PAC1 receptor were 93% and -79%, respectively.

Regarding `CCC[C@H](NC(=O)[C@H](CCC(N)=O)NC(=O)[C@H](CCCCN)NC(=O)[C@H](CCCNC(=N)N)NC(=O)[C@H](Cc1ccc(O)cc1)NC(=O)[C@H](CCCNC(=N)N)NC(=O)[C@H](CO)NC(=O)[C@H](Cc1ccc(O)cc1)NC(=O)[C@H](CO)NC(=O)[C@H](CC(=O)O)NC(=O)[C@@H](NC(=O)[C@H](Cc1ccccc1)NC(=O)[C@@H](NC(=O)CCNC(=O)[C@H](CC(=O)O)NC(=O)[C@@H](CO)NC(=O)[C@@H](N)Cc1c[nH]cn1)[C@@H](C)CC)[C@@H](C)O)C(=O)N[C@@H](C)C(=O)N[C@H](C(=O)N[C@@H](CCCCN)C(=O)N[C@@H](CCCCN)C(=O)N[C@@H](Cc1ccc(O)cc1)C(=O)N[C@@H](CC(C)C)C(=O)N[C@@H](C)C(=O)N[C@@H](C)C(=O)N[C@H](C(=O)N[C@@H](CC(C)C)C(=O)N[C@@H](CO[C@@H]1O[C@H](CO)[C@@H](O)[C@H](O)[C@H]1O)C(N)=O)C(C)C)C(C)C` [CRA3008], on human VPAC2 receptor, the EC50 came to 737 nM, the Emax was 65%, the “Receptor selectivity ratio VPAC2/PAC1” value was 4.64 and the “Receptor selectivity ratio VPAC2/VPAC1” value was determined as 3.65. Also, at human VPAC1 receptor, the Emax came out at 108%, the “Receptor selectivity ratio VPAC1/PAC1” value turned out to be 1.27 and the EC50 was 202 nM. In addition, at human PAC1 receptor, the EC50 is 159 nM and the Emax was found to be 76%.

As for `CCC[C@H](NC(=O)[C@H](CCC(N)=O)NC(=O)[C@H](CCCCN)NC(=O)[C@H](CCCNC(=N)N)NC(=O)[C@H](Cc1ccc(O)cc1)NC(=O)[C@H](CCCNC(=N)N)NC(=O)[C@H](CO)NC(=O)[C@H](Cc1ccc(O)cc1)NC(=O)[C@H](CO)NC(=O)[C@H](CC(=O)O)NC(=O)[C@@H](NC(=O)[C@H](Cc1ccccc1)NC(=O)[C@@H](NC(=O)[C@H](C)NC(=O)[C@H](CC(=O)O)NC(=O)[C@@H](CO)NC(=O)[C@@H](N)Cc1c[nH]cn1)[C@@H](C)CC)[C@@H](C)O)C(=O)N[C@@H](C)C(=O)N[C@H](C(=O)N[C@@H](CCCCN)C(=O)N[C@@H](CCCCN)C(=O)N[C@@H](Cc1ccc(O)cc1)C(=O)N[C@@H](CC(C)C)C(=O)N[C@@H](C)C(=O)N[C@@H](C)C(=O)N[C@H](C(=O)N[C@@H](CC(C)C)C(=O)N[C@@H](CO[C@@H]1O[C@H](CO)[C@@H](O)[C@H](O)[C@H]1O)C(N)=O)C(C)C)C(C)C` [CRA3010], the figures for the Emax at human VPAC2 receptor, at human VPAC1 receptor and at human PAC1 receptor were 112%, 107% and 89%, respectively.

Consider `CCC[C@H](NC(=O)[C@H](CCC(N)=O)NC(=O)[C@H](CCCCN)NC(=O)[C@H](CCCNC(=N)N)NC(=O)[C@H](Cc1ccc(O)cc1)NC(=O)[C@H](CCCNC(=N)N)NC(=O)[C@H](CO)NC(=O)[C@H](Cc1ccc(O)cc1)NC(=O)[C@H](CO)NC(=O)[C@H](CC(=O)O)NC(=O)[C@@H](NC(=O)[C@H](Cc1ccccc1)NC(=O)[C@@H](NC(=O)C(C)(C)NC(=O)[C@H](CC(=O)O)NC(=O)[C@@H](CO)NC(=O)[C@@H](N)Cc1c[nH]cn1)[C@@H](C)CC)[C@@H](C)O)C(=O)N[C@@H](C)C(=O)N[C@H](C(=O)N[C@@H](CCCCN)C(=O)N[C@@H](CCCCN)C(=O)N[C@@H](Cc1ccc(O)cc1)C(=O)N[C@@H](CC(C)C)C(=O)N[C@@H](C)C(=O)N[C@@H](C)C(=O)N[C@H](C(=O)N[C@@H](CC(C)C)C(=O)N[C@@H](CO[C@@H]1O[C@H](CO)[C@@H](O)[C@H](O)[C@H]1O)C(N)=O)C(C)C)C(C)C` [CRA3011], for which, on human VPAC2 receptor, the EC50 is 223 nM, the Emax worked out at 99%, the “Receptor selectivity ratio VPAC2/PAC1” value turned out to be 0.28 and the “Receptor selectivity ratio VPAC2/VPAC1” value was found to be 6.52. Further, at human VPAC1 receptor, the Emax stood at 91%, the “Receptor selectivity ratio VPAC1/PAC1” value was 0.04 and the EC50 was 34.2 nM. Also, the “Selectivity for VPAC1 over PAC1” value on human VPAC1 receptor (from cAMP EC50 values) is approximately 23 fold. Further, on human PAC1 receptor, the EC50 turned out to be 784 nM and the Emax came to 68%.

For the compound `CCC[C@H](NC(=O)[C@H](CCC(N)=O)NC(=O)[C@H](CCCCN)NC(=O)[C@H](CCCNC(=N)N)NC(=O)[C@H](Cc1ccc(O)cc1)NC(=O)[C@H](CCCNC(=N)N)NC(=O)[C@H](CO)NC(=O)[C@H](Cc1ccc(O)cc1)NC(=O)[C@H](CO)NC(=O)[C@H](CC(=O)O)NC(=O)[C@@H](NC(=O)[C@H](Cc1ccccc1)NC(=O)[C@H](CC(C)C)NC(=O)CNC(=O)[C@H](CC(=O)O)NC(=O)[C@@H](CO)NC(=O)[C@@H](N)Cc1c[nH]cn1)[C@@H](C)O)C(=O)N[C@@H](C)C(=O)N[C@H](C(=O)N[C@@H](CCCCN)C(=O)N[C@@H](CCCCN)C(=O)N[C@@H](Cc1ccc(O)cc1)C(=O)N[C@@H](CC(C)C)C(=O)N[C@@H](C)C(=O)N[C@@H](C)C(=O)N[C@H](C(=O)N[C@@H](CC(C)C)C(=O)N[C@@H](CO[C@@H]1O[C@H](CO)[C@@H](O)[C@H](O)[C@H]1O)C(N)=O)C(C)C)C(C)C` [CRA3013], on human VPAC2 receptor, the EC50 was found to be 650 nM, the Emax amounted to 88%, the “Receptor selectivity ratio VPAC2/PAC1” value was 7.31 and the “Receptor selectivity ratio VPAC2/VPAC1” value is recorded as 31.10. Also, at human VPAC1 receptor, the Emax came out at 113%, the “Receptor selectivity ratio VPAC1/PAC1” value is recorded as 0.24 and the EC50 amounted to 20.9 nM. Besides, at human PAC1 receptor, the response was half-maximal at 88.9 nM (EC50) and the Emax is 74%.
